Measured values as given in patent US20020091095A1, “Modulation of Fas and FasL expression” (priority 1999, published 2002).

System: Fas
Assay: Inhibition of Fas expression on Jurkat cells by cycloheximide
Assay type: cell-based, human
Conditions: Jurkat cells, 0.1 μg/ml cycloheximide
Experimental: Fas and FasL expression were measured by flow cytometry using anti-Fas FITC-conjugated monoclonal antibodies and anti-FasL PE-conjugated monoclonal antibodies in a FACScalibur Flow Cytometer (Becton Dickinson, San Jose, Calif., USA) using the CELLQuest program (Becton Dickinson).
Results are expressed as percentage (%) increase in the expression of Fas and of FasL measured on treated cells compared to control cells.
Jurkat human leukemia T cells were pre-incubated with 0.0 μg/ml (−CHX) or with 0.1 μg/ml of cycloheximide (+CHX) for 1 h. Ten μg/ml or 100 μg/ml of 6 base SEQ ID NO:5 (GGGTGG) was added to both the −CHX and +CHX cells and the incubation was continued for 24 hours and for 48 hours (Table 10).

C[C@@H]1C[C@@H]([C@H](O)CC2CC(=O)NC(=O)C2)C(=O)[C@@H](C)C1 [cycloheximide, reference compound]
decrease of Fas expression by cycloheximide (with 10 μg/ml of SEQ ID NO:5, after 24 h): 92% | decrease of Fas expression by cycloheximide (with 10 μg/ml of SEQ ID NO:5, after 48 h): 44% | decrease of Fas expression by cycloheximide (with 100 μg/ml of SEQ ID NO:5, after 24 h): 65% | decrease of Fas expression by cycloheximide (with 100 μg/ml of SEQ ID NO:5, after 48 h): 23%
